Experiment [1] addresses recombinant human SOS1 polypeptide (amino acids 560-1049) (Homo sapiens (Human), UniProt Q07889). Put plainly: biochemical. The format is binding. Conditions: read-out: Ki, Inhibition of Labeled Tracer Binding to SOS1.
A further experiment concerns pERK in MKN1 cells. In words: cells. The format is cell-based.
[2] abbreviates: HTRF displacement, Cy5 labelled tracer, Morrison equation for competitive binding.
Setting [3] is: Homo sapiens, MKN-1, pERK inhibition, In-Cell Western, MKN1 or H358 cells (Table 24 does not say which), 0.5-1 hour incubation, read-out: IC50.

Counter-ions that a name gives are not always drawn. Like-named read-outs stand apart in the source and are kept apart here. Some results are limits rather than exact numbers.

Chain of recombinant human SOS1 polypeptide (amino acids 560-1049) (Q07889 560-1049): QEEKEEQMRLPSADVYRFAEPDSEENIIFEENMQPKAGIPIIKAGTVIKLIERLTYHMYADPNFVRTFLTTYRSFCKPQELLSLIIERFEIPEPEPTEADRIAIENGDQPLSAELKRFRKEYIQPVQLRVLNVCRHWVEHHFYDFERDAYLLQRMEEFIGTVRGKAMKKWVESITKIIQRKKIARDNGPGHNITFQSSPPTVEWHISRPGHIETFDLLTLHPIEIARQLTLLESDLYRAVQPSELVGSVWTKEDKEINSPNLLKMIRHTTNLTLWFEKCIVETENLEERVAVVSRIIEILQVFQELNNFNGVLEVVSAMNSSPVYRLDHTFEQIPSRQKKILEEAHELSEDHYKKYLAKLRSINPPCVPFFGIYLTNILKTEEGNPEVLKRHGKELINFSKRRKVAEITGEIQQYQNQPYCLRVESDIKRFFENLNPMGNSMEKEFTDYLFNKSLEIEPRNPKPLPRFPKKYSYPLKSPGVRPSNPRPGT

With `Cc1c(C#N)cccc1[C@@H](C)Nc1nnc(C)c2c(F)cc(N3CC(C)(O)C3)cc12` [Example 21-10, (R)-3-(1-((5-fluoro-7-(3-hydroxy-3-methylazetidin-1-yl)-4-methylphthalazin-1-yl)amino)ethyl)-2-methylbenzonitrile], the Ki (as a rule, a measure of affinity in units of concentration, obtained from inhibition or displacement) in experiment [1] (setting [2]) is 5.73 nM. The IC50 (as a rule, the concentration that inhibits the measured activity by half) in the experiment on pERK in MKN1 cells (setting [3]) was 58 nM.

Regarding `Cc1c(C#N)cccc1[C@@H](C)Nc1nnc(C)c2ccc(N3CC(C)(O)C3)cc12` [Example 10-58, (R)-3-(1-((7-(3-hydroxy-3-methylazetidin-1-yl)-4-methylphthalazin-1-yl)amino)ethyl)-2-methylbenzonitrile], the Ki in experiment [1] (setting [2]) was 5.78 nM. Besides, in the experiment on pERK in MKN1 cells (setting [3]), the IC50 is 52 nM.

As to `Cc1c(C#N)cccc1[C@@H](C)Nc1nnc(C)c2ccc(N3CC4(CCN(C)C4=O)C3)cc12` [Example 10-69, (R)-2-methyl-3-(1-((4-methyl-7-(6-methyl-5-oxo-2,6-diazaspiro[3.4]octan-2-yl)phthalazin-1-yl)amino)ethyl)benzonitrile], the Ki in experiment [1] (setting [2]) was determined as 3.07 nM. Further, the IC50 with pERK in MKN1 cells (setting [3]) was 39 nM.

With `Cc1nnc(N[C@H](C)c2cccc(C(F)(F)CO)c2)c2cc(N3CCOCC3)ncc12` [Example 21-7, (R)-2,2-difluoro-2-(3-(1-((4-methyl-7-morpholinopyrido[3,4-d]pyridazin-1-yl)amino)ethyl)phenyl)ethan-1-ol], in experiment [1], the Ki turned out to be 0.71 nM. For the same compound, the IC50 in the experiment with pERK in MKN1 cells (Homo sapiens, MKN-1, pERK inhibition, In-Cell Western, MKN1 or H358 cells (Table 24 does not say which), 0.5-1 hour incubation) was found to be 26 nM.

With `Cc1ncccc1[C@@H](C)Nc1nnc(C)c2ccc(N3CCOCC3)cc12` [Example 10-72, (R)-4-methyl-N-(1-(2-methylpyridin-3-yl)ethyl)-7-morpholinophthalazin-1-amine], in experiment [1] (setting [2]), the Ki is 46.1 nM. In the experiment on pERK in MKN1 cells (setting [3]), the IC50 was found to be 466 nM.

Consider `Cc1c([C@@H](C)Nc2nnc(C)c3cnc(N4CCC(N(C)C)CC4)cc23)cccc1C(F)(F)F` [Example 12-15], for which the Ki in experiment [1] (setting [2]) was found to be 0.25 nM. Also, in the experiment with pERK in MKN1 cells (setting [3]), the IC50 amounted to 17 nM.

Turning to `COc1c(C#N)cccc1[C@@H](C)Nc1nnc(C)c2cnc(N3CC(C)(O)C3)cc12` [Example 17-3, (R)-3-(1-((7-(3-hydroxy-3-methylazetidin-1-yl)-4-methylpyrido[3,4-d]pyridazin-1-yl)amino)ethyl)-2-methoxybenzonitrile], in experiment [1] (setting [2]), the Ki came out at 12.8 nM. Also, in the experiment with pERK in MKN1 cells (setting [3]), the IC50 turned out to be 188 nM.

With `CNCc1ccccc1-c1ccc([C@@H](C)Nc2nnc(C)c3cnc(N4CCOCC4)cc23)s1` [Example 6-2, (R)-4-methyl-N-(1-(5-(2-((methylamino)methyl)phenyl)thiophen-2-yl)ethyl)-7-morpholinopyrido[3,4-d]pyridazin-1-amine], the Ki in experiment [1] (setting [2]) was found to be 1.35 nM. Further, in the experiment with pERK in MKN1 cells (setting [3]), the IC50 stood at 100 nM.

`Cc1c(C#N)cccc1[C@@H](C)Nc1nnc(C)c2ccc(N3CCC(F)(F)CC3)cc12` [Example 10-67, (R)-3-(1-((7-(4,4-difluoropiperidin-1-yl)-4-methylphthalazin-1-yl)amino)ethyl)-2-methylbenzonitrile]: the Ki in experiment [1] (setting [2]) worked out at 2.57 nM. Also, the IC50 with pERK in MKN1 cells (setting [3]) worked out at 44 nM.

Consider `Cc1nc2n(c1C)CCN(c1ccc3cnnc(N[C@H](C)c4cccc(C(F)(F)F)c4C)c3c1)C2` [Example 1-28, (R)-7-(2,3-dimethyl-5,6-dihydroimidazo[1,2-a]pyrazin-7(8H)-yl)-N-(1-(2-methyl-3-(trifluoromethyl)phenyl)ethyl)phthalazin-1-amine], for which, in experiment [1] (setting [2]), the Ki is 0.17 nM. In addition, the half-inhibitory concentration (IC50) in the experiment with pERK in MKN1 cells (setting [3]) stood at 61 nM.

Turning to `Cc1c([C@@H](C)Nc2nnc(C)c3cnc(N4C[C@H](C)O[C@@H](C)C4)cc23)cccc1C(F)(F)F` [Example 12-6], the inhibition constant (Ki) in experiment [1] (setting [2]) stood at 0.87 nM. In addition, the IC50 with pERK in MKN1 cells (setting [3]) was found to be 522 nM.

With `Cc1c([C@@H](C)Nc2nnc(C)c3cnc(N4C5CCC4COC5)cc23)cccc1C(F)(F)F` [Example 12-31], the Ki in experiment [1] (setting [2]) was 1.02 nM. Besides, in the experiment on pERK in MKN1 cells (setting [3]), the IC50 came out at 70 nM.

Turning to `Cc1c([C@@H](C)Nc2nnc(C)c3cnc(N4CCC(N5CCC5)CC4)cc23)cccc1C(F)(F)F` [Example 12-33], the Ki in experiment [1] (setting [2]) worked out at 0.3 nM. Further, the IC50 in the experiment with pERK in MKN1 cells (setting [3]) was determined as 55 nM.

Regarding `Cc1nnc(N[C@H](C)c2cccc(C(F)(F)F)c2F)c2cc(N3CC(C)(O)C3)ncc12` [Example 12-61], in experiment [1] (setting [2]), the Ki was 1.68 nM. In the experiment with pERK in MKN1 cells (setting [3]), the IC50 was 21 nM.

Turning to `Cc1c([C@@H](C)Nc2nnc(C)c3cnc(N4CC(O)C4)cc23)cccc1C(F)(F)F` [Example 12-22], the Ki in experiment [1] (setting [2]) was determined as 1.24 nM. In addition, the IC50 in the experiment on pERK in MKN1 cells (setting [3]) was determined as 89 nM.

Consider `Cc1c([C@@H](C)Nc2nnc(C)c3ccc(N4CCN5C(=O)CC[C@H]5C4)cc23)cccc1C(F)(F)F` [Example 10-13, (S)-2-(1-methyl-4-(((R)-1-(2-methyl-3-(trifluoromethyl)phenyl)ethyl)amino)phthalazin-6-yl)hexahydropyrrolo[1,2-a]pyrazin-6(2H)-one], for which, in experiment [1] (setting [2]), the Ki was 0.49 nM. Moreover, the IC50 in the experiment with pERK in MKN1 cells (setting [3]) was 39 nM.

`Cc1c([C@@H](C)Nc2nnc(C)c3ccc(N4CCC5(CCCN5)CC4)cc23)cccc1C(F)(F)F` [Example 10-35, (R)-4-methyl-N-(1-(2-methyl-3-(trifluoromethyl)phenyl)ethyl)-7-(1,8-diazaspiro[4.5]decan-8-yl)phthalazin-1-amine]: the Ki in experiment [1] (setting [2]) came to 0.31 nM. In addition, the IC50 with pERK in MKN1 cells (pERK inhibition, In-Cell Western, MKN1 or H358 cells (Table 24 does not say which), 0.5-1 hour incubation, read-out: IC50) is 1000 nM.

With `Cc1nnc(N[C@H](C)c2cc(N)cc(C(F)(F)F)n2)c2cc(N3CC4(CCN(C)C4=O)C3)ncc12` [Example 16-7, (R)-2-(1-((1-(4-amino-6-(trifluoromethyl)pyridin-2-yl)ethyl)amino)-4-methylpyrido[3,4-d]pyridazin-7-yl)-6-methyl-2,6-diazaspiro[3.4]octan-5-one], the inhibition constant (Ki) in experiment [1] (setting [2]) is 78.8 nM. In addition, the IC50 in the experiment with pERK in MKN1 cells (setting [3]) came out at 2900 nM.

Take `Cc1c(C#N)cccc1[C@@H](C)Nc1nnc(C)c2ccc(O[C@H]3CCOC3)cc12` [Example 13-3]: the Ki in experiment [1] (setting [2]) worked out at 12.2 nM. Also, the IC50 in the experiment with pERK in MKN1 cells (setting [3]) turned out to be 195 nM.

With `Cc1c(C#N)cccc1[C@@H](C)Nc1nnc(C)c2ccc(N3CCC(N4CCC4)CC3)cc12` [Example 10-68, (R)-3-(1-((7-(4-(azetidin-1-yl)piperidin-1-yl)-4-methylphthalazin-1-yl)amino)ethyl)-2-methylbenzonitrile], the Ki in experiment [1] (setting [2]) was determined as 0.75 nM. Moreover, the IC50 in the experiment on pERK in MKN1 cells (setting [3]) came out at 36 nM.

Regarding `CCc1ccc2c(C)nnc(N[C@H](C)c3ccc(-c4ccccc4CNC)s3)c2c1` [8-2, (R)-7-ethyl-4-methyl-N-(1-(5-(2-((methylamino)methyl)phenyl)thiophen-2-yl)ethyl)phthalazin-1-amine], in experiment [1] (setting [2]), the Ki was determined as 3.74 nM. The IC50 with pERK in MKN1 cells (setting [3]) was found to be 605 nM.

On to `Cc1c([C@@H](C)Nc2nnc(C)c3ccc(N4CCN(C)C5(CC5)C4)cc23)cccc1C(F)(F)F` [Example 10-33, (R)-4-methyl-N-(1-(2-methyl-3-(trifluoromethyl)phenyl)ethyl)-7-(4-methyl-4,7-diazaspiro[2.5]octan-7-yl)phthalazin-1-amine], for which the Ki in experiment [1] (setting [2]) came to 0.69 nM. In the experiment on pERK in MKN1 cells (setting [3]), the IC50 was 275 nM.

Consider `Cc1c([C@@H](C)Nc2nnc(C)c3ccc(N4CCNCC(F)(F)C4)cc23)cccc1C(F)(F)F` [Example 10-5, (R)-7-(6,6-difluoro-1,4-diazepan-1-yl)-4-methyl-N-(1-(2-methyl-3-(trifluoromethyl)phenyl)ethyl)phthalazin-1-amine], for which the Ki in experiment [1] (setting [2]) was less than 0.01 nM. Further, in the experiment with pERK in MKN1 cells (setting [3]), the IC50 came out at 108 nM.

As to `Cc1c(C#N)cccc1[C@@H](C)Nc1nnc(C)c2ccc(N3CCOCC3)cc12` [Example 10-51, (R)-2-methyl-3-(1-((4-methyl-7-morpholinophthalazin-1-yl)amino)ethyl)benzonitrile], the Ki in experiment [1] (setting [2]) is 1.4 nM. Besides, the IC50 in the experiment with pERK in MKN1 cells (setting [3]) was found to be 39 nM.

Turning to `COc1c(C#N)cccc1[C@@H](C)Nc1nnc(C)c2cnc(N3CCN4CCOCC4C3)cc12` (stereo in doubt) [Example 17-2, 3-((R)-1-((7-((R)-hexahydropyrazino[2,1-c][1,4]oxazin-8(1H)-yl)-4-methylpyrido[3,4-d]pyridazin-1-yl)amino)ethyl)-2-methoxybenzonitrile], the Ki in experiment [1] (setting [2]) came out at 12.5 nM. Further, in the experiment on pERK in MKN1 cells (setting [3]), the IC50 is 50 nM.

As to `Cc1c(C#N)cccc1[C@@H](C)Nc1nnc(C)c2ccc(N3CC4(CCN(C)C4)C3)cc12` [Example 10-73, (R)-2-methyl-3-(1-((4-methyl-7-(6-methyl-2,6-diazaspiro[3.4]octan-2-yl)phthalazin-1-yl)amino)ethyl)benzonitrile formate salt], the Ki in experiment [1] amounted to 0.63 nM. This compound gave an IC50 in the experiment with pERK in MKN1 cells (Homo sapiens, MKN-1) of 49 nM.

For the compound `Cc1c([C@@H](C)Nc2nncc3ccc(OC4CCN(C)C4(C)C)cc23)cccc1C(F)(F)F` (stereo partly drawn) [Example 2-5, N-((R)-1-(2-methyl-3-(trifluoromethyl)phenyl)ethyl)-7-((1,2,2-trimethylpyrrolidin-3-yl)oxy)phthalazin-1-amine], the Ki in experiment [1] (setting [2]) worked out at 1.78 nM. In addition, the IC50 with pERK in MKN1 cells (setting [3]) came out at 82 nM.

`Cc1c(C#N)cccc1[C@@H](C)Nc1nnc(C)c2cnc(N3CCNCC3)cc12` [Example 12-25]: the Ki in experiment [1] (setting [2]) worked out at 2.41 nM. Besides, the IC50 with pERK in MKN1 cells (setting [3]) was 35 nM.

`Cc1c([C@@H](C)Nc2nncc3ccc(O[C@H]4C[C@H](N(C)C)C4)cc23)cccc1C(F)(F)F` [Example 2-8, 7-((trans)-3-(dimethylamino)cyclobutoxy)-N-((R)-1-(2-methyl-3-(trifluoromethyl)phenyl)ethyl)phthalazin-1-amine]: the Ki in experiment [1] (setting [2]) came out at 2.99 nM. Besides, in the experiment with pERK in MKN1 cells (setting [3]), the IC50 was 148 nM.

`Cc1c([C@@H](C)Nc2nncc3ccc(O[C@H]4CC[C@H](N(C)C)C4)cc23)cccc1C(F)(F)F` [Example 2-11, 7-(((trans)-3-(dimethylamino)cyclopentyl)oxy)-N-((R)-1-(2-methyl-3-(trifluoromethyl)phenyl)ethyl)phthalazin-1-amine]: the Ki in experiment [1] (setting [2]) was 2.83 nM. Moreover, in the experiment on pERK in MKN1 cells (setting [3]), the IC50 is 243 nM.

For the origin of these results see patent US11702418B2, “SOS1 inhibitors” (priority 2019, dated 2023).
